Test results from article PMC12873548, “D-amino acid substitution and cyclization enhance the stability and antimicrobial activity of arginine-rich peptides” (Microbiology, 2026).
Like-named read-outs stand apart in the source and are kept apart here. No end group written: not given here.

Assays:
S. aureus (ATCC12600) = assay type: cell-based, Staphylococcus aureus
Description: (§1) The MIC of arginine-based peptides was assessed using the microbroth dilution approach. Our in vitro screening included a panel of Gram-negative bacteria, Escherichia coli (ATCC 25922 and enterohaemorrhagic O157:H7) and Pseudomonas aeruginosa (PA01 and the drug-resistant strain NCTC 13437), and Gram-positive bacteria (Staphylococcus aureus ATCC 12600). Five-millilitre overnight cultures in Lysogeny broth, prepared from single isolated colonies, were diluted to 5×10^6 c.f.u. ml^−1 mid-log phase in Mueller–Hinton (MH) broth. Next, peptide concentrations (0 to 1 mM) were serially diluted twofold in 96-well plates and incubated overnight at 37 °C with the tested bacterial strains. In each case, the MIC was determined as the lowest peptide concentration at which no detectable bacterial growth was observed, employing an absorbance-based assay using a Tecan Spark® multimode plate reader. Subsequently, 10 µl aliquots from each peptide dilution were transferred to MH agar (1.5%) plates to determine the minimum bactericidal concentration (MBC) which was assessed by establishing at which concentration no visible growth of bacteria (assessed via colony formation) on the plate was observed.

P. aeruginosa (PA01) [1] = assay type: cell-based, Pseudomonas aeruginosa; settings: for MIC, Control: control without serum or trypsin; for MIC, Trypsin: peptide incubated with 5 µM SGMT trypsin in 50 mM Tris-HCl, 1 mM CaCl2, pH 7.6, 24 h at 37 °C before MIC; for MIC, 20% human serum: peptide incubated with 20% human serum 24 h at 37 °C before MIC; for MIC, 50% human serum: peptide incubated with 50% human serum 24 h at 37 °C before MIC
Description: as §1
(§2) The antimicrobial activity and structural stability of arginine-rich peptides were evaluated in the presence of human serum (20% and 50 %) and 5 µM Sequencing Grade Modified Trypsin (SGMT, Promega). Briefly, fresh human blood was collected in EDTA tubes and allowed to clot at room temperature for 1 h. Serum was then collected following centrifugation at 2,000 r.p.m. for 10 min at 4 °C. Peptides were incubated with 20%, 50% human serum and 5 µM SGMT in 50 mM Tris-HCl buffer (1 mM CaCl₂, pH 7.6) for 24 h at 37 °C. After the incubation period, the solutions were further incubated with E. coli (ATCC 25922 and O157:H7), P. aeruginosa (PA01, NCTC13437) and S. aureus (ATCC12600), and the MIC was assessed as described in the ‘Antibacterial assessment’ section. Additionally, the samples were analysed using electrospray ionization MS to monitor structural changes based on the molecular weight of the peptides.

E. coli (25922) = assay type: cell-based, Escherichia coli; settings: for MIC, Control: control without serum or trypsin; for MIC, Trypsin: peptide incubated with 5 µM SGMT trypsin in 50 mM Tris-HCl, 1 mM CaCl2, pH 7.6, 24 h at 37 °C before MIC; for MIC, 20% human serum: peptide incubated with 20% human serum 24 h at 37 °C before MIC; for MIC, 50% human serum: peptide incubated with 50% human serum 24 h at 37 °C before MIC
Description: as §1, §2

E. coli (O157:H7) = assay type: cell-based, Escherichia coli; settings: for MBC: 10 µl aliquots plated on MH agar, no visible colonies; for MIC: MH broth, 5×10^6 cells, 24 h, 37 °C, absorbance 600 nm, triplicate
Description: as §1

E. coli (ATCC25922) = assay type: cell-based, Escherichia coli; settings: E. coli ATCC25922; for MBC: 10 µl aliquots plated on MH agar, no visible colonies; for MIC: MH broth, 5×10^6 cells, 24 h, 37 °C, absorbance 600 nm, triplicate
Description: as §1

P. aeruginosa (PA01) [2] = assay type: cell-based, Pseudomonas aeruginosa; settings: for MIC: 24 h
Description: as §1

[3] = system: P. aeruginosa (NCTC13437); assay type: cell-based, Pseudomonas aeruginosa; settings: P. aeruginosa NCTC13437 (drug-resistant)
Description: as §1

S. aureus (12600) = assay type: cell-based, Staphylococcus aureus; settings: for MIC, Control: control without serum or trypsin; for MIC, Trypsin: peptide incubated with 5 µM SGMT trypsin in 50 mM Tris-HCl, 1 mM CaCl2, pH 7.6, 24 h at 37 °C before MIC; for MIC, 20% human serum: peptide incubated with 20% human serum 24 h at 37 °C before MIC; for MIC, 50% human serum: peptide incubated with 50% human serum 24 h at 37 °C before MIC
Description: as §1, §2

L929 fibroblasts = assay type: cell-based; settings: 24 h
Description: The toxicity screening of arginine-rich peptides was conducted in two cell types: human red blood cells (hRBCs) and L929 fibroblasts. The peptide-induced lysis of hRBCs was estimated based on the release of haemoglobin into solution, following a previously established protocol with slight modifications. Briefly, fresh human blood was collected from a healthy donor. To isolate hRBCs from plasma, the blood was centrifuged at 2,000 r.p.m. for 10 min at 4 °C, and the cells were carefully resuspended in 0.5% suspension buffer. After, they were added to a 96-well plate containing various concentrations of peptides diluted in PBS. After incubation for 1 h at 37 °C, cells were spun at 2,000 r.p.m. for 10 min at 4 °C to pellet cell debris and the supernatant collected and measured at OD414. The data was calculated as the % haemolysis relative to the positive control (cells treated with 1% Triton X-100). The toxicity screening using L929 fibroblasts was based on the metabolic activity of cells using an MTS colourimetric assay (Fig. S2). […] The absorbance was measured at OD490 using a Tecan Spark multimode plate reader. The quantification of viable cells was expressed as a % and determined by comparing peptide-treated groups with control cells grown in their absence. […]

[4] = biological target: T1, Sequencing Grade Modified Trypsin (Sus scrofa, UniProt P00761); assay: Stability with trypsin by LC-MS; assay type: in vitro ADME; settings: 5 µM SGMT trypsin, 50 mM Tris-HCl, 1 mM CaCl2, pH 7.6, 24 h, 37 °C; read-out LC-MS (ESI)
T1 construct: purchased Promega
T1 sequence (P00761 9-231): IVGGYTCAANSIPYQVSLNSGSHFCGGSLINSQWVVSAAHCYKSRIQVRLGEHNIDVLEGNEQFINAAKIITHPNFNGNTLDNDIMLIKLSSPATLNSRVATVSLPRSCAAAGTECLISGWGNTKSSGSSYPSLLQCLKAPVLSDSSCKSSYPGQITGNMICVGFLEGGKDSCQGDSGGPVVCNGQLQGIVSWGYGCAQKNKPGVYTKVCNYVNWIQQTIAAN
Description: as §2

[5] = S. aureus ATCC12600, 10 µl aliquots plated on MH agar, no visible colonies
[6] = S. aureus ATCC12600, MH broth, 5×10^6 cells, 24 h, 37 °C, absorbance 600 nm, triplicate
[7] = P. aeruginosa PA01, 10 µl aliquots plated on MH agar, no visible colonies
[8] = P. aeruginosa PA01, MH broth, 5×10^6 cells, 37 °C, absorbance 600 nm, triplicate

RRARSAVAS [RRARSAVAS]
MBC (S. aureus (ATCC12600); [5]): >1,000/>1,000 μM
MIC (S. aureus (ATCC12600); [6]): >1,000/>1,000 μM
MIC, Control (P. aeruginosa (PA01) [1]): >1,000 μM
MIC, Trypsin (P. aeruginosa (PA01) [1]): >1,000 μM
MIC, 20% human serum (P. aeruginosa (PA01) [1]): >1,000 μM
MIC, 50% human serum (P. aeruginosa (PA01) [1]): >1,000 μM
MIC, Control (E. coli (25922)): >1,000 μM
MIC, Trypsin (E. coli (25922)): >1,000 μM
MIC, 20% human serum (E. coli (25922)): >1,000 μM
MIC, 50% human serum (E. coli (25922)): >1,000 μM
MBC (E. coli (O157:H7)): >1,000/>1,000 μM
MIC (E. coli (O157:H7)): >1,000/>1,000 μM
MBC (E. coli (ATCC25922)): >1,000/>1,000 μM
MIC (E. coli (ATCC25922)): >1,000/>1,000 μM
MBC (P. aeruginosa (PA01) [2]; [7]): >1,000/>1,000 μM
MIC (P. aeruginosa (PA01) [2]; [8]): >1,000/>1,000 μM
MBC ([3]; 10 µl aliquots plated on MH agar, no visible colonies): >1,000/>1,000 μM
MIC ([3]; MH broth, 5×10^6 cells, 24 h, 37 °C, absorbance 600 nm, triplicate): >1,000/>1,000 μM
MIC, Control (S. aureus (12600)): >1,000 μM
MIC, Trypsin (S. aureus (12600)): >1,000 μM
MIC, 20% human serum (S. aureus (12600)): >1,000 μM
MIC, 50% human serum (S. aureus (12600)): >1,000 μM

RRRRAAAA [Peptide R4A4]
MBC (S. aureus (ATCC12600); [5]): >1,000/>1,000 μM
MIC (S. aureus (ATCC12600); [6]): >1,000/>1,000 μM
MIC, Control (P. aeruginosa (PA01) [1]): >1,000 μM
MIC, Trypsin (P. aeruginosa (PA01) [1]): >1,000 μM
MIC, 20% human serum (P. aeruginosa (PA01) [1]): >1,000 μM
MIC, 50% human serum (P. aeruginosa (PA01) [1]): >1,000 μM
MIC, Control (E. coli (25922)): 1,000 μM
MIC, Trypsin (E. coli (25922)): >1,000 μM
MIC, 20% human serum (E. coli (25922)): 1,000 μM
MIC, 50% human serum (E. coli (25922)): >1,000 μM
MBC (E. coli (O157:H7)): >1,000/>1,000 μM
MIC (E. coli (O157:H7)): >1,000/>1,000 μM
MBC (E. coli (ATCC25922)): 1,000/>1,000 μM
MIC (E. coli (ATCC25922)): 1,000/>1,000 μM
MBC (P. aeruginosa (PA01) [2]; [7]): >1,000/>1,000 μM
MIC (P. aeruginosa (PA01) [2]; [8]): >1,000/>1,000 μM
MIC, Control (S. aureus (12600)): >1,000 μM
MIC, Trypsin (S. aureus (12600)): >1,000 μM
MIC, 20% human serum (S. aureus (12600)): >1,000 μM
MIC, 50% human serum (S. aureus (12600)): >1,000 μM

RRRRFFFF [Peptide R4F4]
MBC (S. aureus (ATCC12600); ATCC12600): 250 µM
MIC (S. aureus (ATCC12600); ATCC12600, 24 h): 125 µM
EC50 (L929 fibroblasts): 481 µM
Stability with trypsin (LC chromatogram and mass spectrum) [4]: degraded into smaller fragments
MBC (P. aeruginosa (PA01) [2]): 250 µM
MIC (P. aeruginosa (PA01) [2]): 125 µM

RRRRVVVV [Peptide R4V4]
MBC (S. aureus (ATCC12600); [5]): >1,000/>1,000 μM
MIC (S. aureus (ATCC12600); [6]): >1,000/>1,000 μM
MIC, Control (P. aeruginosa (PA01) [1]): >1,000 μM
MIC, Trypsin (P. aeruginosa (PA01) [1]): >1,000 μM
MIC, 20% human serum (P. aeruginosa (PA01) [1]): >1,000 μM
MIC, 50% human serum (P. aeruginosa (PA01) [1]): >1,000 μM
MIC, Control (E. coli (25922)): 1,000 μM
MIC, Trypsin (E. coli (25922)): >1,000 μM
MIC, 20% human serum (E. coli (25922)): 1,000 μM
MIC, 50% human serum (E. coli (25922)): >1,000 μM
MBC (E. coli (O157:H7)): 1,000/>1,000 μM
MIC (E. coli (O157:H7)): 1,000/>1,000 μM
MBC (E. coli (ATCC25922)): 1,000/>1,000 μM
MIC (E. coli (ATCC25922)): 1,000/>1,000 μM
MBC (P. aeruginosa (PA01) [2]; [7]): >1,000/>1,000 μM
MIC (P. aeruginosa (PA01) [2]; [8]): >1,000/>1,000 μM
MIC, Control (S. aureus (12600)): >1,000 μM
MIC, Trypsin (S. aureus (12600)): >1,000 μM
MIC, 20% human serum (S. aureus (12600)): >1,000 μM
MIC, 50% human serum (S. aureus (12600)): >1,000 μM
